Data from patent publication US20240174624A1, “CHIRAL N-(1,3,4-OXADIAZOLE-2-YL)PHENYL CARBOXYLIC ACID AMIDES AND THEIR USE AS HERBICIDES” (Bayer Aktiengesellschaft, priority 2021, published 2024).

Columns and labels:
ALOMY = experiment: Pre-emergence herbicidal action; assay type: in vivo, Alopecurus myosuroides; details: 80 g/ha, scored after 3 weeks
Text: (§1) Seeds of monocotyledonous and dicotyledonous weed plants and crop plants are laid out in sandy loam soil in wood-fibre pots and covered with soil. The compounds of the invention, formulated in the form of wettable powders (WP) or as emulsion concentrates (EC), are then applied to the surface of the covering soil in the form of an aqueous suspension or emulsion at a water application rate equivalent to 600 to 800 l/ha, with addition of 0.2% wetting agent. After the treatment, the pots are placed in a greenhouse and kept under good growth conditions for the trial plants. The damage to the test plants is scored visually after a test period of 3 weeks by comparison with untreated controls (herbicidal activity in percent (%): 100% activity=the plants have died, 0% activity=like control plants). […] The tables below illustrate, in an illustrative manner, the post-emergence herbicidal action of the compounds of the invention, the herbicidal activity being stated in percent. In the experiments that follow, the herbicidal action of the compounds of the invention and that of the corresponding known racemic compounds closest from WO2012126932 and WO2018202535 were compared under the above-specified conditions by the pre-emergence and post-emergence method. The example numbers given in the tables relate to the compounds disclosed in the respective documents.

AMARE [1] = experiment: Pre-emergence herbicidal action; assay type: in vivo, Amaranthus retroflexus; details: scored after 3 weeks
Text: as §1, with “percent.” for “percent. In the experiments that follow, the herbicidal action of the compounds of the invention and that of the corresponding known racemic compounds closest from WO2012126932 and WO2018202535 were compared under the above-specified conditions by the pre-emergence and post-emergence method. The example numbers given in the tables relate to the compounds disclosed in the respective documents.”

AVEFA = experiment: Pre-emergence herbicidal action; assay type: in vivo, Avena fatua; details: 80 g/ha, scored after 3 weeks
Text: as §1

DIGSA [2] = experiment: Pre-emergence herbicidal action; assay type: in vivo, Digitaria sanguinalis; details: scored after 3 weeks
Text: as §1, with “percent.” for “percent. In the experiments that follow, the herbicidal action of the compounds of the invention and that of the corresponding known racemic compounds closest from WO2012126932 and WO2018202535 were compared under the above-specified conditions by the pre-emergence and post-emergence method. The example numbers given in the tables relate to the compounds disclosed in the respective documents.”

ECHCG [3] = experiment: Pre-emergence herbicidal action; assay type: in vivo, Echinochloa crus-galli; details: scored after 3 weeks
Text: as §1, with “percent.” for “percent. In the experiments that follow, the herbicidal action of the compounds of the invention and that of the corresponding known racemic compounds closest from WO2012126932 and WO2018202535 were compared under the above-specified conditions by the pre-emergence and post-emergence method. The example numbers given in the tables relate to the compounds disclosed in the respective documents.”

MATIN = experiment: Pre-emergence herbicidal action; assay type: in vivo, Matricaria inodora; details: scored after 3 weeks
Text: as §1

SETVI [4] = experiment: Pre-emergence herbicidal action; assay type: in vivo, Setaria viridis; details: scored after 3 weeks
Text: as §1

VERPE [5] = experiment: Pre-emergence herbicidal action; assay type: in vivo, Veronica persica; details: scored after 3 weeks
Text: as §1

VIOTR [6] = experiment: Pre-emergence herbicidal action; assay type: in vivo, Viola tricolor; details: scored after 3 weeks
Text: as §1, with “percent.” for “percent. In the experiments that follow, the herbicidal action of the compounds of the invention and that of the corresponding known racemic compounds closest from WO2012126932 and WO2018202535 were compared under the above-specified conditions by the pre-emergence and post-emergence method. The example numbers given in the tables relate to the compounds disclosed in the respective documents.”

ZEAMX = experiment: Pre-emergence damage to crop plants; assay type: in vivo, Zea mays; details: 80 g a.i./ha, comparative experiment
Text: as §1

BRSNW = experiment: Pre-emergence damage to crop plants; assay type: in vivo, Brassica napus; details: 20 g a.i./ha, comparative experiment
Text: as §1

AMARE [7] = experiment: Post-emergence herbicidal action; assay type: in vivo, Amaranthus retroflexus; details: assessed after about 3 weeks
Description: (§2) Seeds of monocotyledonous and dicotyledonous weed and crop plants are laid out in sandy loam soil in wood-fibre pots, covered with soil and cultivated in a greenhouse under good growth conditions. 2 to 3 weeks after sowing, the test plants are treated at the one-leaf stage. The compounds of the invention, formulated in the form of wettable powders (WP) or as emulsion concentrates (EC), are then sprayed onto the green parts of the plants in the form of an aqueous suspension or emulsion at a water application rate equating to 600 to 800 l/ha, with addition of 0.2% wetting agent. After the test plants have been left to stand in the greenhouse under optimal growth conditions for about 3 weeks, the action of the preparations is assessed visually in comparison to untreated controls (herbicidal action in percent (%): 100% activity=the plants have died, 0% activity=like control plants). […] The tables below illustrate, in an illustrative manner, the post-emergence herbicidal action of the compounds of the invention, the herbicidal activity being stated in percent.

DIGSA [8] = experiment: Post-emergence herbicidal action; assay type: in vivo, Digitaria sanguinalis; details: assessed after about 3 weeks
Description: as §2, with “percent. In the experiments that follow, the herbicidal action of the compounds of the invention and that of the corresponding known racemic compounds closest from WO2012126932 and WO2018202535 were compared under the above-specified conditions by the pre-emergence and post-emergence method. The example numbers given in the tables relate to the compounds disclosed in the respective documents.” for “percent.”

ECHCG [9] = experiment: Post-emergence herbicidal action; assay type: in vivo, Echinochloa crus-galli
Description: as §2, with “percent. In the experiments that follow, the herbicidal action of the compounds of the invention and that of the corresponding known racemic compounds closest from WO2012126932 and WO2018202535 were compared under the above-specified conditions by the pre-emergence and post-emergence method. The example numbers given in the tables relate to the compounds disclosed in the respective documents.” for “percent.”

PHBPU = experiment: Post-emergence herbicidal action; assay type: in vivo, Pharbitis purpurea; details: 20 g/ha, assessed after about 3 weeks
Description: as §2

SETVI [10] = experiment: Post-emergence herbicidal action; assay type: in vivo, Setaria viridis; details: for Post-emergence action against SETVI: assessed after about 3 weeks
Description: as §2, with “percent. In the experiments that follow, the herbicidal action of the compounds of the invention and that of the corresponding known racemic compounds closest from WO2012126932 and WO2018202535 were compared under the above-specified conditions by the pre-emergence and post-emergence method. The example numbers given in the tables relate to the compounds disclosed in the respective documents.” for “percent.”

VERPE [11] = experiment: Post-emergence herbicidal action; assay type: in vivo, Veronica persica; details: assessed after about 3 weeks
Description: as §2, with “percent. In the experiments that follow, the herbicidal action of the compounds of the invention and that of the corresponding known racemic compounds closest from WO2012126932 and WO2018202535 were compared under the above-specified conditions by the pre-emergence and post-emergence method. The example numbers given in the tables relate to the compounds disclosed in the respective documents.” for “percent.”

VIOTR [12] = experiment: Post-emergence herbicidal action; assay type: in vivo, Viola tricolor; details: for Herbicidal action against VIOTR: comparative experiment; for Post-emergence action against VIOTR: assessed after about 3 weeks
Description: as §2, with “percent. In the experiments that follow, the herbicidal action of the compounds of the invention and that of the corresponding known racemic compounds closest from WO2012126932 and WO2018202535 were compared under the above-specified conditions by the pre-emergence and post-emergence method. The example numbers given in the tables relate to the compounds disclosed in the respective documents.” for “percent.”

TRZAS = experiment: Post-emergence damage to crop plants; assay type: in vivo, Triticum aestiva; details: 5 g a.i./ha, comparative experiment
Description: as §2, with “percent. In the experiments that follow, the herbicidal action of the compounds of the invention and that of the corresponding known racemic compounds closest from WO2012126932 and WO2018202535 were compared under the above-specified conditions by the pre-emergence and post-emergence method. The example numbers given in the tables relate to the compounds disclosed in the respective documents.” for “percent.”

GLXMA = experiment: Post-emergence damage to crop plants; assay type: in vivo, Glycine max; details: 5 g a.i./ha, comparative experiment
Description: as §2, with “percent. In the experiments that follow, the herbicidal action of the compounds of the invention and that of the corresponding known racemic compounds closest from WO2012126932 and WO2018202535 were compared under the above-specified conditions by the pre-emergence and post-emergence method. […]” for “percent.”

For Cc1nnc(NC(=O)c2ccc(C(F)F)c([S+](C)[O-])c2Cl)o1 (stereo in doubt) [Example I-6, 2-chloro-N-(5-methyl-1,3,4-oxadiazol-2-yl)-3-[(S)-methylsulfinyl]-4-(difluoromethyl)benzamide], the “Pre-emergence action against ALOMY” value (ALOMY) was 100%, the “Pre-emergence action against AMARE” value (AMARE [1]; 20 g/ha) was 90% and the “Pre-emergence action against AMARE” value (AMARE [1]; 80 g/ha) was 100%. For the same compound, the “Pre-emergence action against AVEFA” value (AVEFA) was 100%, the “Pre-emergence action against DIGSA” value (DIGSA [2]; 20 g/ha) was 100% and the “Pre-emergence action against DIGSA” value (DIGSA [2]; 80 g/ha) was 100%. The “Pre-emergence action against ECHCG” value (ECHCG [3]; 20 g/ha) was 90%, the “Pre-emergence action against ECHCG” value (ECHCG [3]; 80 g/ha) was 100% and the “Pre-emergence action against MATIN” value (MATIN; 20 g/ha) was 90%. The “Pre-emergence action against MATIN” value (MATIN; 80 g/ha) was 90%, the “Pre-emergence action against SETVI” value (SETVI [4]; 20 g/ha) was 90% and the “Pre-emergence action against SETVI” value (SETVI [4]; 80 g/ha) was 100%. For the same compound, the “Pre-emergence action against VERPE” value (VERPE [5]; 20 g/ha) was 90%, the “Pre-emergence action against VERPE” value (VERPE [5]; 80 g/ha) was 100% and the “Pre-emergence action against VIOTR” value (VIOTR [6]; 20 g/ha) was 100%. For the same compound, the “Pre-emergence action against VIOTR” value (VIOTR [6]; 80 g/ha) was 100%, the “Damage to ZEAMX” value (ZEAMX) was 20% and the “Damage to BRSNW” value (BRSNW) was 40%. The “Post-emergence action against AMARE” value (AMARE [7]; 5 g/ha) was 90%, the “Post-emergence action against AMARE” value (AMARE [7]; 20 g/ha) was 100% and the “Post-emergence action against DIGSA” value (DIGSA [8]; 5 g/ha) was 90%. For the same compound, the “Post-emergence action against DIGSA” value (DIGSA [8]; 20 g/ha) was 90%, the “Herbicidal action against ECHCG” value (ECHCG [9]; 20 g a.i./ha, comparative experiment) was 100% and the “Post-emergence action against ECHCG” value (ECHCG [9]; 20 g/ha, assessed after about 3 weeks) was 100%. For the same compound, the “Post-emergence action against PHBPU” value (PHBPU) was 90%, the “Herbicidal action against SETVI” value (SETVI [10]; 5 g a.i./ha, comparative experiment) was 100% and the “Post-emergence action against SETVI” value (SETVI [10]; 5 g/ha) was 100%. For the same compound, the “Post-emergence action against SETVI” value (SETVI [10]; 20 g/ha) was 100%, the “Post-emergence action against VERPE” value (VERPE [11]; 5 g/ha) was 90% and the “Post-emergence action against VERPE” value (VERPE [11]; 20 g/ha) was 90%. The “Herbicidal action against VIOTR” value (VIOTR [12]; 5 g a.i./ha) was 80%, the “Post-emergence action against VIOTR” value (VIOTR [12]; 5 g/ha) was 80% and the “Herbicidal action against VIOTR” value (VIOTR [12]; 20 g a.i./ha) was 100%. The “Post-emergence action against VIOTR” value (VIOTR [12]; 20 g/ha) was 100%, the “Damage to TRZAS” value (TRZAS) was 20% and the “Damage to GLXMA” value (GLXMA) was 40%.
